How the values were obtained:
Assay type in all cases: in vivo
[1] = tested on: barnyardgrass (Echinochloa crus-galli); assay: Test C preemergence, visual plant response rating
How it was run: (§1)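 Compounds in a non-phytotoxic solvent with surfactant were applied as a directed soil spray preemergence or to 2–10 cm, one- to two-leaf plants postemergence, in loam–sand soil. After about 10 d in a greenhouse, injury was visually rated against untreated controls on a 0–100 scale (100 = complete control).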

[2] = tested on: foxtail, giant (giant foxtail, Setaria faberi); assay: Test C preemergence, visual plant response rating
How it was run: as §1

[3] = tested on: ragweed (common ragweed, Ambrosia artemisiifolia); assay: Test C preemergence, visual plant response rating
How it was run: as §1

[4] = tested on: Italian ryegrass (Lolium mutiflorum); assay: Test C preemergence, visual plant response rating
How it was run: as §1

[5] = tested on: kochia (Bassia scoparia); assay: Test C preemergence, visual plant response rating
How it was run: as §1

[6] = tested on: pigweed (Amaranthus retroflexus); assay: Test C preemergence, visual plant response rating
How it was run: as §1

[7] = tested on: barnyardgrass (Echinochloa crus-galli); assay: Test D flooded paddy test, visual plant response rating; details: 250 g ai/ha, scale 0 to 100 (0 no effect, 100 complete control), 13 to 15 d
How it was run: (§2)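 Plants were grown to the 2-leaf stage, pots flooded to 3 cm above soil, and compound applied directly into the paddy water, with the depth held throughout. After 13 to 15 d in a greenhouse, response was rated visually against untreated controls on a 0–100 scale (0 no effect, 100 complete control).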

[8] = tested on: duck salad (Heteranthera limosa); assay: as above; details: 250 g ai/ha, scale 0 to 100 (0 no effect, 100 complete control), 13 to 15 d
How it was run: as §2

[9] = tested on: rice (Oryza sativa); assay: as above; details: 250 g ai/ha, scale 0 to 100 (0 no effect, 100 complete control), 13 to 15 d
How it was run: as §2

[10] = tested on: sedge umbrella (small-flower umbrella sedge, Cyperus difformis); assay: as above; details: 250 g ai/ha, scale 0 to 100 (0 no effect, 100 complete control), 13 to 15 d
How it was run: as §2

[11] = tested on: barnyardgrass (Echinochloa crus-galli); assay: Test C postemergence, visual plant response rating
How it was run: as §1

[12] = tested on: wheat (Triticum aestivum); assay: Test C postemergence, visual plant response rating
How it was run: as §1

[13] = tested on: galium (catchweed bedstraw, Galium aparine); assay: Test C postemergence, visual plant response rating
How it was run: as §1

[14] = tested on: foxtail, giant (giant foxtail, Setaria faberi); assay: Test C postemergence, visual plant response rating
How it was run: as §1

[15] = tested on: ragweed (common ragweed, Ambrosia artemisiifolia); assay: Test C postemergence, visual plant response rating
How it was run: as §1

[16] = tested on: corn (Zea mays); assay: Test C postemergence, visual plant response rating
How it was run: as §1

[17] = tested on: Italian ryegrass (Lolium mutiflorum); assay: Test C postemergence, visual plant response rating
How it was run: as §1

[18] = tested on: kochia (Bassia scoparia); assay: Test C postemergence, visual plant response rating
How it was run: as §1

[19] = tested on: pigweed (Amaranthus retroflexus); assay: Test C postemergence, visual plant response rating
How it was run: as §1

[20] = tested on: blackgrass (Alopecurus myosuroides); assay: Test C postemergence, visual plant response rating
How it was run: as §1

[21] = Test C, 31 g ai/ha, 0 is no effect, 100 is complete control
[22] = Test C, postemergence, 125 g ai/ha

In the case of `C#CCO/N=C(\c1c(O)c(C)nn(C)c1=O)c1cc(Cl)cc2ccccc12` [Compound 191], the “Barnyardgrass plant response rating (0 to 100 scale)” value (from here on “Barnyardgrass plant response rating”) ([1]; 125 g ai/ha) is reported as 90, the “Barnyardgrass plant response rating” value [1, 21] is reported as 30 and the “Foxtail, Giant plant response rating (0 to 100 scale)” value (“Foxtail, Giant plant response rating” below) ([2]; 125 g ai/ha) is reported as 90. The “Foxtail, Giant plant response rating” value [2, 21] was 70, the “Ragweed plant response rating (0 to 100 scale)” value (“Ragweed plant response rating” below) ([3]; 125 g ai/ha) was 80 and the “Ragweed plant response rating” value [3, 21] was 50. The “Ryegrass, Italian plant response rating (0 to 100 scale)” value (“Ryegrass, Italian plant response rating” for short) ([4]; 125 g ai/ha) was 80, the “Ryegrass, Italian plant response rating” value [4, 21] was 30 and the “Kochia plant response rating (0 to 100 scale)” value (“Kochia plant response rating” below) ([5]; 125 g ai/ha) was 60. The “Kochia plant response rating” value [5, 21] was 10, the “Pigweed plant response rating (0 to 100 scale)” value (“Pigweed plant response rating” below) ([6]; 125 g ai/ha) was 100 and the “Pigweed plant response rating” value [6, 21] was 80. For the same compound, the “Plant response rating, Barnyardgrass (Flood)” value [7] was 70, the “Plant response rating, Ducksalad (Flood)” value [8] was 75 and the “Plant response rating, Rice (Flood)” value [9] was 60. For the same compound, the “Plant response rating, Sedge, Umbrella (Flood)” value [10] was 80, the “Barnyardgrass plant response rating” value ([11]; Postemergence, 31 g ai/ha) was 80 and the “Barnyardgrass plant response rating” value [11, 22] was 90. The “Wheat plant response rating (0 to 100 scale)” value ([12]; Postemergence, 31 g ai/ha) was 0, the “Wheat plant response rating (0 to 100 scale)” value [12, 22] was 70 and the “Galium plant response rating (0 to 100 scale)” value ([13]; Postemergence, 31 g ai/ha) was 70. For the same compound, the “Galium plant response rating (0 to 100 scale)” value [13, 22] was 100, the “Foxtail, Giant plant response rating” value ([14]; Postemergence, 31 g ai/ha) was 70 and the “Foxtail, Giant plant response rating” value [14, 22] was 80. The “Ragweed plant response rating” value ([15]; Postemergence, 31 g ai/ha) was 70, the “Ragweed plant response rating” value [15, 22] was 80 and the “Corn plant response rating (0 to 100 scale)” value ([16]; Postemergence, 31 g ai/ha) was 10. For the same compound, the “Corn plant response rating (0 to 100 scale)” value [16, 22] was 60, the “Ryegrass, Italian plant response rating” value ([17]; Postemergence, 31 g ai/ha) was 0 and the “Ryegrass, Italian plant response rating” value [17, 22] was 80. For the same compound, the “Kochia plant response rating” value ([18]; Postemergence, 31 g ai/ha) was 50, the “Kochia plant response rating” value [18, 22] was 80 and the “Pigweed plant response rating” value ([19]; Postemergence, 31 g ai/ha) was 90. The “Pigweed plant response rating” value [19, 22] was 100, the “Blackgrass plant response rating (0 to 100 scale)” value ([20]; Postemergence, 31 g ai/ha) was 80 and the “Blackgrass plant response rating (0 to 100 scale)” value [20, 22] was 70.

Reference: patent US20210045385A1, “PYRIDAZINONE-SUBSTITUTED KETOXIMES AS HERBICIDES” (FMC Corporation, priority 2018, published 2021)
